The subject of one experiment is NKT cells. Particulars: specificity for the α-linkage; cited from earlier work.
The next experiment has as its system M. tuberculosis (Erdman). As to the kind of experiment: Intravenous inoculation model of tuberculosis: survival of infected BALB/c mice treated with α-galactosylceramide. Format: in vivo.
In experiment [1] the test system is NK, B, CD8+, and CD4+ lymphocytes. The note with it: cited from earlier work.

For the compound β-galactosylceramide, in the experiment on NKT cells, the “activation of NKT cells” value was “does not activate NKT cells”.
In the case of `CCCCCCCCCCCCCCCCCCCCCCCCCC(=O)N[C@@H](CO[C@H]1O[C@H](CO)[C@H](O)[C@H](O)[C@H]1O)[C@H](O)[C@H](O)CCCCCCCCCCCCCC` [α-galactosylceramide], the “survival compared to the control group” value in the experiment on M. tuberculosis (Erdman) (BALB/c mice, 5×10^5 cfu IV, 2 ug IP on days 1, 5 and 9, nine mice per group) is given as “increased survival”. The “mean survival time (MST)” value with M. tuberculosis (Erdman) (BALB/c mice, 5×10^5 cfu IV, 2 ug IP on days 1, 5 and 9 after infection, vehicle MST 60 days, p<0.0001 by log-rank test) worked out at 91 days. In addition, in the experiment with M. tuberculosis (Erdman) (preliminary experiments, all of the infected mice died despite treatment), the bacteriological cure result was “did not result in a bacteriological cure”. The “time to activation of NK, B, CD8+ and CD4+ lymphocytes (induction of CD69, CD80, CD86)” value in experiment [1] (administration to mice in vivo) is 3 to 24 h. Also, the “time to detectable increase in serum IFN-γ” value in experiment [1] (following in vivo treatment of mice) was ≤ 18 h. Besides, the “activation of the immune system” value in experiment [1] (mice that lack CD1d (CD1d −/−) or lack NKT cells (Jα281−/−)) is “does not occur”.

The values above are taken from patent US20020115624A1, “Alpha gylcosylceramides for treating bacterial and fungal infections” (priority 2000, published 2002).
